From the supplement of paper PMC10307832

How the values were obtained:
Assay in all cases: relative viability (nuclei count vs DMSO), 5 days (fraction); higher = more cells survive
Wnt-C59 + Bortezomib = compound: CC1=NC=CC(=C1)C2=CC=C(C=C2)CC(=O)NC3=CC=C(C=C3)C4=CN=CC=C4 [Wnt-C59] + CC(C)C[C@H](NC(=O)[C@H](Cc1ccccc1)NC(=O)c1cnccn1)B(O)O [Bortezomib] (partner 0.002 µM)
Procedure, shortened: (§1)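 Relative viability was taken as the ratio of nuclei in treated wells to nuclei in vehicle wells. Lung cancer cell lines in 1536-well plates received compounds by pin tool one day after seeding, either one drug alone or a fixed anchor-drug dose plus five library-drug doses (not always all listed) in √10 steps. Nuclei were counted on 4× images after 5 days of treatment, and values are medians of duplicate plates.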

Wnt-C59 + Foretinib = compound: CC1=NC=CC(=C1)C2=CC=C(C=C2)CC(=O)NC3=CC=C(C=C3)C4=CN=CC=C4 [Wnt-C59] + COc1cc2c(Oc3ccc(NC(=O)C4(C(=O)Nc5ccc(F)cc5)CC4)cc3F)ccnc2cc1OCCCN1CCOCC1 [Foretinib] (partner 0.25 µM)
Procedure, shortened: as §1

Wnt-C59 + Pemetrexed = compound: CC1=NC=CC(=C1)C2=CC=C(C=C2)CC(=O)NC3=CC=C(C=C3)C4=CN=CC=C4 [Wnt-C59] + Nc1nc2[nH]cc(CCc3ccc(C(=O)N[C@@H](CCC(=O)O)C(=O)O)cc3)c2c(=O)[nH]1 [Pemetrexed] (partner 0.2 µM)
Procedure, shortened: as §1

Lapatinib + Bortezomib = compound: CS(=O)(=O)CCNCc1ccc(-c2ccc3ncnc(Nc4ccc(OCc5cccc(F)c5)c(Cl)c4)c3c2)o1 [Lapatinib] + CC(C)C[C@H](NC(=O)[C@H](Cc1ccccc1)NC(=O)c1cnccn1)B(O)O [Bortezomib] (partner 0.002 µM)
Procedure, shortened: as §1

Cell Line	relative viability (Wnt-C59 + Bortezomib; first compound 0.001 µM)	relative viability (Wnt-C59 + Bortezomib; first compound 0.01 µM)	relative viability (Wnt-C59 + Bortezomib; first compound 0.03162 µM)	relative viability (Wnt-C59 + Bortezomib; first compound 0.1 µM)	relative viability (Wnt-C59 + Foretinib; first compound 0.001 µM)	relative viability (Wnt-C59 + Foretinib; first compound 0.01 µM)	relative viability (Wnt-C59 + Foretinib; first compound 0.03162 µM)	relative viability (Wnt-C59 + Foretinib; first compound 0.1 µM)	relative viability (Wnt-C59 + Pemetrexed; first compound 0.001 µM)	relative viability (Wnt-C59 + Pemetrexed; first compound 0.01 µM)	relative viability (Wnt-C59 + Pemetrexed; first compound 0.03162 µM)	relative viability (Wnt-C59 + Pemetrexed; first compound 0.1 µM)	relative viability (Lapatinib + Bortezomib; first compound 0.02 µM)	relative viability (Lapatinib + Bortezomib; first compound 0.06325 µM)	relative viability (Lapatinib + Bortezomib; first compound 0.2 µM)	relative viability (Lapatinib + Bortezomib; first compound 0.6325 µM)	relative viability (Lapatinib + Bortezomib; first compound 2 µM)
NCI-H1651	0.928	0.985	0.97	0.913	0.985	0.734	0.858	0.758	0.577	0.618	0.648	0.558	0.994	0.93	0.819	0.859	0.963
NCI-H1703	0.417	0.271	0.331	0.42	0.346	0.279	0.355	0.348					0.316	0.313	0.317	0.24	0.32
NCI-H522									1.18	1.03	1.17	0.855					
HCC-366	1.06	0.98	1.16	1.07	0.896	0.975	0.922	0.89	0.164	0.16	0.163	0.155		1.03	1.06	0.992	0.935
SK-LU-1	1.15	1.23	1.28	1.45	0.791	0.796	0.87	0.792	0.969	1	1	0.973		1.04	1.05	1.2	1.2
NCI-H520	0.596	0.611	0.509	0.57	0.792	0.696	0.867	0.689	0.655	0.626	0.787	0.682	0.699	0.388	0.59	0.54	0.416
NCI-H1437	0.576	0.433	0.551	0.395	1.31	1.28	1.29	1.26	0.36	0.299	0.31	0.331	0.523	0.46	0.421	0.394	0.39
NCI-H460	0.934	1.06	1.14	1.1	1.03	0.966	1.02	0.94	0.0664	0.0664	0.0652	0.0706	1.02	1.02	1.15	0.984	1.11
LK-2					1.28	1.02	1.46	1.25	0.332	0.295	0.323	0.331					
NCI-H358					0.759	0.648	1.04	0.678	0.167	0.176	0.207	0.172					
NCI-H2085	1.16	0.898	1.07	1.16	0.987	0.958	0.88	0.918	0.837	0.887	0.963	0.888	0.667	0.979	0.998	0.994	1.02
